This note sets out measurements from patent publication US5932606A, “Pyrazinone, pyridinone, piperidine and pyrrolidine thrombin inhibitors” (Merck & Co., Inc., priority 1998, dated 1999).

Square brackets hold non-standard residues; d marks the D form. Peptide text beside a SMILES is read from it. * marks the point of attachment. AFC = O=c1cc(C(F)(F)F)c2ccc(N*)cc2o1; pNA = O=[N+]([O-])c1ccc(N*)cc1; Cbz = O=C(OCc1ccccc1)*; Sar = CNCC(=O)O

One experiment concerns thrombin. As to the kind of experiment: More sensitive thrombin activity assay with fluorogenic substrate Z-GPR-afc (fluorescence at 500 nm). It counts as biochemical, human. The note with it: excitation at 400 nm. As to the method:
(§1) Assays of human a-thrombin and human trypsin were performed at 25° C. in 0.05 M TRIS buffer pH 7.4, 0.15 M NaCl, 0.1% PEG. Trypsin assays also contained 1 mM CaCl2.
In certain studies with potent inhibitors (Ki <10 nM) where the degree of inhibition of thrombin was high, a more sensitive activity assay was employed. […] Concentrations of stock solutions of Z-GPR-afc were determined from measurements of absorbance at 380 nm of the 7-amino-4-trifluoromethyl coumarin produced upon complete hydrolysis of an aliquot of the stock solution by thrombin.
(§2) Activity assays were performed by diluting a stock solution of substrate at least tenfold to a final concentration ≤0.5 Km into a solution containing enzyme or enzyme equilibrated with inhibitor. Times required to achieve equilibration between enzyme and inhibitor were determined in control experiments. Initial velocities of product formation in the absence (Vo) or presence of inhibitor (Vi) were measured. Assuming competitive inhibition, and that unity is negligible compared Km /[S], […] (where [S], [I], and e respectively represent the total concentrations, of substrate, inhibitor and enzyme), the equilibrium constant (Ki) for dissociation of the inhibitor from the enzyme can be obtained from the dependence of Vo /Vi on [I] shown in equation 1.

For another experiment, the system named is human trypsin. As to the kind of experiment: In vitro assay for determining proteinase inhibition, trypsin (p-nitroanilide substrate sar-PR-pna, 405 nm). It counts as biochemical. The following applies: 25° C., pH 7.4, 1 mM CaCl2. The procedure:
(§3) In Vitro Assay for Determining Proteinase Inhibition
as §1, §2

For the next experiment, the system named is human a-thrombin. As to the kind of experiment: In vitro assay for determining proteinase inhibition, thrombin (p-nitroanilide substrate sar-PR-pna, 405 nm). The format is biochemical. The note with it: 25° C., pH 7.4. The procedure:
as §3, §1, §2

Take `N=C(N)NCCC[C@H](NC(=O)[C@@H]1CCCN1C(=O)CNC(=O)OCc1ccccc1)C(=O)Nc1ccc2c(C(F)(F)F)cc(=O)oc2c1` [Z-GPR-afc, Cbz-Gly-Pro-Arg-7-amino-4-trifluoromethylcoumarin] (Cbz-Gly-Pro-Arg-{AFC}): the Km with thrombin is 27 µM.

Turning to `CNCC(=O)N1CCC[C@H]1C(=O)N[C@@H](CCCNC(=N)N)C(=O)Nc1ccc([N+](=O)[O-])cc1` [sar-PR-pna, sarcosine-Pro-Arg-p-nitroanilide] (H-[Sar]-Pro-Arg-pNA), the Michaelis constant (Km) came to 59 µM in the experiment with human trypsin and 125 µM in the experiment on human a-thrombin.
